{"source": "paper PMC4949444", "about": "(Scientific Reports, 2016)", "key": {"[1]": {"system": "3NP-lesioned C57BL/6 mice", "assay": "3-nitropropionic acid (3NP) model of Huntington's disease", "type": "in vivo", "settings": "for COX-2 (2expΔΔct) / IL-6 (2expΔΔct) / TNF-α (2expΔΔct): striatum mRNA, mean ± SEM n=6; for COX-2 (2expΔΔct) / IL-6 (2expΔΔct) / TNF-α (2expΔΔct) / % GSH / % SOD activity / %Catalase activity: substance alone; for % GSH / % SOD activity / %Catalase activity: striatum, % of vehicle-treated control", "procedure": "Figure 7 VCE-003.2 is neuroprotective in 3NP-intoxicated mice. (a) Behavioural score was determined 12 hours after 3NP intoxication. Mice were treated with VCE-003.2 (20 mg/Kg) alone or combined with T0070907 (5 mg/kg) as indicated. Animals were also treated separately with either VCE-003.2 or T0070907 alone. Hind limb clasping, general locomotor activity, hind limb dystonia and kyphosis were rated from 0 to 2 based on severity (score 0 indicates normal function and 2 indicates the most severe affected function). Values are expressed as means ± SEM (n = 6). (b) Representative images of Nissl staining performed on coronal striatal brain sections from the same mice groups. Photomicrographs of NeuN (Bar size, 50 μm) Iba-1 and glial fibrillary acidic protein (GFAP) immunostained sections through the different group of mice are also shown. (c) Quantification of the different markers was performed with Image J software. Total average number of neurons (NeuN^+), microglia (Iba1^+) and astrocytes (GFAP^+) is shown. Values are expressed as means ± SEM (n = 6). *p < 0.05, **p < 0.01, ***p < 0.001 vs. Vehicle; ^#p < 0.05, ^##p < 0.01, ^###p < 0.001 vs. 3NP; †p < 0.05, ^††p < 0.01, ^†††p < 0.001 vs. the 3NP + VCE-003.2 group.\nMice were housed under standard conditions (12-h light/dark cycle) in groups with access to food and water ad libitum. All experiments were performed in accordance with European Union guideline and approved by the Animal Research Ethic Committee of Córdoba University (2014PI/017) (3NP model) and by the Animal Research Ethic Committee of Complutense University (CEA-UCM 73/2012) (QA model). Procedures were designed to minimize the number of animals used and their suffering. Excitotoxicity was induced by intrastriatal quinolinic acid (QA) administration (100 nmol in 1 μL PBS solution, unilaterally) as previously described[41] at the following coordinates: +0.6 posterior to bregma, +1.85 medio-lateral and -2.7 dorso-ventral to dura, in 12-week-old CD1 male mice (Harlan Ibérica, Barcelona, Spain). Pharmacological manipulation with VCE-003.2 (10 mg/kg body weight) was performed i.p. daily in 2% Tween 20 and 3% DMSO in saline buffer until sacrifice. Control animals received the corresponding vehicle injections. Motor function was assessed by RotaRod analysis conducted with acceleration from 4 to 40 rpm over a period of 570 s in an LE8200 device (Harvard Apparatus, Barcelona, Spain). […] 3NP-treated animals and their respective non-lesioned controls (injected with PBS) were used for pharmacological studies with VCE-003.2. Treatments consisted of 4 i.p. injections every 24 h with 20 mg/kg VCE-003.2 or vehicle (4% DMSO plus 6,2% Tween 20 in saline buffer), with the first and the last injections 30 min before the first and the last injections of 3NP, respectively. In some experiments, mice received a combination of VCE-003.2 and the PPARγ antagonist T0070907 (5 mg/kg) injected 15 minutes before VCE-003.2. In 3NP-lesioned mice, motor activity, hindlimb clasping, dystonia, and truncal dystonia were evaluated following previously described procedures. All behavioural tests were conducted prior to drug injections to avoid acute effects of the compounds under investigation and all animals were euthanized 12 h after the last injection of 3NP and their brains removed. The right hemispheres were used to dissect the striatum which was frozen in RNAlater (Sigma-Aldrich) and stored at −80 °C for biochemical analyses. The left hemispheres were fixed in fresh 4% paraformaldehyde (in 0.1 M PBS) for 48 h at 4 °C and embedded in paraffin wax for staining and immunohistochemical analysis. In all experiments, at least 6 animals were used per experimental group.\nFree floating coronal brain slices ([…]) were processed as previously described. […]"}, "[2]": {"assay": "Cysteamine recovery assay (thiol trapping)", "procedure": "cysteamine to form polar and not extractable adducts.\n(§1) Determination of ROS: N2a cells were seeded at 25x 10^3 cells/ml in 96-well plates and incubated with 0.25 ȝM 5-(and-6 )-chloro meth yl-2ƍ,7ƍ-dichlorodihydrofluorescein diacetate acet yl ester (C M-H 2 DCFDA) for 20 minutes at 37°C. Then, the cells were treated with either VCE-003 or VCE-003.2 for 2 hours. Cells exposed to pro-oxidant tert-Butyl h ydroperoxide (TBHP) were used as positive control. H 2 DCFDA oxidation was detected using an Incuc yteTM Live-Cell Imaging S ystem (Hertfordshire, UK).\n(§2) Nrf2 transcriptional assay: To study Nrf2 transcriptional activity N2a cells were seeded (105/ml) in 24-well plates and transientl y transfected with the plasmid NQO1-ARE-Luc using Roti©-Fect following the manufacturer’s instructions (Carl Roth, Karlsruhe, German y). After 24 hours, cells were incubated wi th the compounds at the concentrations indicated during 6 hours and the luciferase activit y was determined using an Autolumat LB 953 (EG&G Berthold, Bad Wildbad, Germany). Protein content was determined b y the Bradford method to calculate R LU/Pg of protein and the results were expressed as a fold induction over untreated cells."}, "N2a cells [3]": {"system": "N2a cells", "assay": "N2a cytotoxicity assay (MTT)", "type": "cell-based", "settings": "24 hours", "procedure": "Figure 1 VCE-003.2 synthesis and characterization. (a) Schematic representation of VCE-003.2 synthesis. […] The indicated concentrations were tested and results were plotted to obtain the polynomial trend on a logarithmic range. IC50 values are indicated within the graph. […]. HEK293 cells were co-transfected with GAL4-PPARγ and GAL4-luc and incubated with the indicated compound concentrations for 6 hours prior to luciferase activity determination. Results are expressed as the fold induction ± S.D. relative to untreated control. (d) N2a cells were incubated with VCE-003 and VCE-003.2 as indicated during 24 hours and cell viability was determined by the MTT assay. Results are expressed as percentage of cell viability against the negative control (100%). (e) N2a cells were pre-treated with the compounds for 30 min and incubated during 24 h with 15 mM glutamate and cell viability determined by MTT. Results are expressed as percentage of cell viability against the negative control (100%). All experiments are shown as mean ± S.D. from at least three independent experiments. Statistics: *^,#,†p < 0.05, **^,##,††p < 0.01 and ***^,###p < 0.001. […] | Briefly, N2a cells were seeded at a density of 1 × 10^3 cells/well in 96-well plates, treated with increasing concentrations of VCE-003 or VCE-003.2 for 24 hours and cell viability was measured by the MTT method. […]. […]"}, "N2a cells [4]": {"system": "N2a cells", "assay": "Reactive oxygen species production in N2a cells (CM-H2DCFDA)", "type": "cell-based", "settings": "2 hours", "procedure": "as §1\nSupplementary Figure S1. Non-elect rophilic activity for VCE-003.2. (a) Reactive ox ygen species production. N2a cells were stained with CM-H2DCFDA and treated with VCE-003 or VCE-003.2 for 2 hours. Then, reactive ox ygen sp ecies were measured b y In cu c yt e TM Liv e-Cell Im agin g S ystem. Results are ex pressed as m ean of t otal integrated intensity (ROS positive cells) ± S.D. (b) Effect on Nrf2 transcriptional activity.\nVCE-003 treatment vers us Vehicle treated cells."}, "Nrf2 pathway": {"system": "Nrf2 pathway", "assay": "Nrf2 transcriptional assay (NQO1-ARE-Luc) in N2a cells", "type": "cell-based", "settings": "6 hours", "procedure": "as §2\nSupplementary Figure S1. Non-elect rophilic activity for VCE-003.2. (a) Reactive ox ygen species production.\nIn cu c yt e TM Liv e-Cell Im agin g S ystem. Results are ex pressed as m ean of t otal integrated intensity (ROS positive cells) ± S.D. (b) Effect on Nrf2 transcriptional activity. N2a cells were transientl y trans fected with the NQO1-ARE-Luc plasmid and incubated with the indicated compound concentrations for 6 hours prior to luciferase activit y determination.\nResults are expressed as the fold induction ± S.D. relative to untreated control. All the results are representative of at least three independent experiments. Statistics: **p<0.01 VCE-003 treatment vers us Vehicle treated cells."}, "Keap1/Nrf2 pathway": {"system": "Keap1/Nrf2 pathway", "assay": "Keap1/Nrf2 pathway activation (unpublished results)"}, "3NP-lesioned mice": {"system": "3NP-lesioned mice", "settings": "cited from earlier work"}}, "data": [{"smiles": "O=C(Nc1ccncc1)c1cc([N+](=O)[O-])ccc1Cl", "note": "[T0070907, reference compound]", "values": [{"measurement": "behavioural score, substance alone", "setting": "[1]; mice given the substance alone", "result": "Neither VCE-003.2 nor T0070907 alone influenced the behavior of the animals"}, {"measurement": "COX-2 (2expΔΔct)", "setting": "[1]", "result": "1.45 ± 0.82 2expΔΔct"}, {"measurement": "IL-6 (2expΔΔct)", "setting": "[1]", "result": "1.57 ± 0.51 2expΔΔct"}, {"measurement": "TNF-α (2expΔΔct)", "setting": "[1]", "result": "1.54 ± 0.75 2expΔΔct"}, {"measurement": "% GSH", "setting": "[1]", "result": "115.82 ± 11.23", "unit": "%"}, {"measurement": "% SOD activity", "setting": "[1]", "result": "97.61 ± 27.44", "unit": "%"}, {"measurement": "%Catalase activity", "setting": "[1]", "result": "92.18 ± 4.1", "unit": "%"}]}, {"smiles": "CCCCCC1=CC(=O)C(C/C=C(\\C)CCC=C(C)C)=C(O)C1=O", "note": "[VCE-003, reference compound]", "values": [{"measurement": "recovery after treatment with cysteamine (thiol-trapping reactivity)", "setting": "[2]", "result": "undetectable in the residue"}, {"measurement": "cell viability / cytotoxic activity", "setting": "N2a cells [3]", "result": "clear cytotoxic activity at the highest concentrations tested"}, {"measurement": "induction of reactive oxygen species (ROS)", "setting": "N2a cells [4]", "result": "induced reactive oxygen species (ROS)"}, {"measurement": "activation of the Nrf2 pathway", "setting": "Nrf2 pathway", "result": "activated the Nrf2 pathway"}]}, {"smiles": "C=C(C)[C@@H]1CCC(C)=C[C@H]1C1=C(O)C(=O)C(CCCCC)=CC1=O", "note": "[CBD-hydroxy-quinone]", "values": [{"measurement": "activation of the Keap1/Nrf2 pathway", "setting": "Keap1/Nrf2 pathway", "result": "activates the Keap1/Nrf2 pathway"}]}, {"smiles": "O=C(O)CC[N+](=O)[O-]", "note": "[3NP, 3-nitropropionic acid, reference compound]", "values": [{"measurement": "behavioural score, substance alone", "setting": "[1]; mice given the substance alone", "result": "high scores in hindlimb clasping, locomotor activity, hindlimb dystonia and kyphosis"}, {"measurement": "number of neurons in the striatum (Nissl, NeuN), substance alone", "setting": "[1]; mice given the substance alone", "result": "reduced the number of neurons in the striatum"}, {"measurement": "COX-2 (2expΔΔct)", "setting": "[1]", "result": "4.69 ± 0.09^* 2expΔΔct"}, {"measurement": "IL-6 (2expΔΔct)", "setting": "[1]", "result": "4.28 ± 0.08^* 2expΔΔct"}, {"measurement": "TNF-α (2expΔΔct)", "setting": "[1]", "result": "5.19 ± 0.327^** 2expΔΔct"}, {"measurement": "% GSH", "setting": "[1]", "result": "67.16 ± 5.06", "unit": "%"}, {"measurement": "% SOD activity", "setting": "[1]", "result": "56.56 ± 1.05^** %"}, {"measurement": "%Catalase activity", "setting": "[1]", "result": "58.85 ± 2.17^*** %"}]}, {"smiles": "CCCCCc1cc(O)c(C/C=C(\\C)CCC=C(C)C)c(O)c1", "note": "[CBG, cannabigerol]", "values": [{"measurement": "levels of GSH in the brain", "setting": "3NP-lesioned mice", "result": "restores the levels of GSH in the brain of 3NP-lesioned mice"}]}]}
